Like-named read-outs stand apart in the source and are kept apart here.
Legend:
[1] = log P by reversed-phase HPLC (EEC Directive 79/831 Annex V.A8); format: physicochemical; conditions: for chromatographic logP: reversed-phase C18 HPLC column
Text: NMR data and log P values: log P (HCOOH)=log P[a] log P (neutral)=log P[b]
^[a] […] Called log P (HCOOH) in the table.
^[b] […] Called log P (neutral) in the table.

[2] = tested on: Tetranychus urticae; assay: Tetranychus urticae spray test, OP-resistant (TETRUR); format: in vivo; conditions: 500 g/ha, bean leaf discs, after 6 days
Experimental: Tetranychus urticae—spray test, OP-resistant (TETRUR)
(§1) • Solvent: 78.0 parts by weight of acetone • 1.5 parts by weight of dimethylformamide • Emulsifier: 0.5 part by weight of alkylaryl polyglycol ether
After 6 days, the efficacy in % is determined. 100% means that all the spider mites have been killed; 0% means that no spider mites have been killed.

[3] = tested on: Myzus persicae; assay: Myzus persicae spray test (MYZUPE); format: in vivo; conditions: Chinese cabbage leaf discs, after 6 days
Experimental: Myzus persicae—spray test (MYZUPE)
• Solvent: 78 parts by weight of acetone • 1.5 parts by weight of dimethylformamide • Emulsifier: 0.5 part by weight of alkylaryl polyglycol ether
After 6 days, the efficacy in % is determined. 100% means that all the aphids have been killed; 0% means that no aphids have been killed.

[4] = tested on: Aphis gossypii; assay: Aphis gossypii spray test; format: in vivo; conditions: cotton plants, after 6 days
Experimental: Aphis gossypii—spray test
(§2) • Solvent: 7 parts by weight of dimethylformamide • Emulsifier: alkylaryl polyglycol ether
(§3) To produce further test concentrations, the preparation is diluted with emulsifier-containing water. If the addition of ammonium salts or/and penetrants is required, these are each added in a concentration of 1000 ppm to the formulation solution.
After 6 days, the kill in % is determined. 100% means that all the aphids have been killed; 0% means that no aphids have been killed.

[5] = tested on: Nilaparvata lugens; assay: Nilaparvata lugens spray test (solvent dimethylformamide, 7 days); format: in vivo; conditions: rice plants, after 7 days
Experimental: (§4) Nilaparvata lugens—spray test
If the addition of ammonium salts or/and penetrants is required, these are each added in a concentration of 1000 ppm to the formulation solution.
After 7 days, the efficacy in % is determined.

[6] = tested on: Haemonchus contortus; assay: Haemonchus contortus test (HAEMCO); format: in vivo; conditions: after 5 days
Text: Haemonchus contortus-test ([…]) • Solvent: dimethyl sulfoxide […] Vessels containing the active compound preparation of the desired concentration are populated with about 40 larvae of the red stomach worm (Haemonchus contortus).

[7] = tested on: Boophilus microplus; assay: Boophilus microplus test (BOOPMI injection); format: in vivo; conditions: 20 μg/animal, injection into the abdomen, after 7 days
Experimental: Boophilus microplus test (BOOPMI injection) • Solvent: dimethyl sulfoxide To produce a suitable preparation of active compound, 10 mg of active compound are mixed with 0.5 ml of solvent and the concentrate is diluted with solvent to the desired concentration. The active compound solution is injected into the abdomen (Boophilus microplus), and the animals are transferred into dishes and stored in a climate-controlled room. Efficacy is assessed after 7 days by laying of fertile eggs. Eggs which are not visibly fertile are stored in a climate-controlled cabinet until the larvae hatch after about 42 days.

[8] = tested on: Meloidogyne incognita; conditions: 20 ppm, lettuce, after 14 days
Experimental: Meloidogvne incognita test (MELGIN)
• Solvent: 125.0 parts by weight of acetone
The lettuce seeds germinate and the plants develop. The galls develop on the roots.
After 14 days, the nematicidal efficacy in % is determined by the formation of galls.

[9] = tested on: Phaedon cochleariae; assay: Phaedon cochleariae spray test (PHAECO); format: in vivo; conditions: 500 g/ha, Chinese cabbage leaf discs, after 7 days
Experimental: Phaedon cochleariae—spray test (PHAECO)
as §1
After 7 days, the efficacy in % is determined. 100% means that all the beetle larvae have been killed; 0% means that no beetle larvae have been killed.

[10] = tested on: Bemisia tabaci; assay: Bemisia tabaci spray test; format: in vivo; conditions: 100 ppm, cotton plants, after 8 days
Experimental: Bemisia Tabaci—Spray Test
as §2, §3
After 8 days, the efficacy in % is determined. 100% means that all the whiteflies have been killed; 0% means that none of the whiteflies have been killed.

[11] = tested on: Nilaparvata lugens; conditions: 500 g/ha, rice plants, after 4 days
Experimental: as §4
• Solvent: 52.5 parts by weight of acetone • 7 parts by weight of dimethylformamide • Emulsifier: alkylaryl polyglycol ether
To produce further test concentrations, the preparation is diluted with emulsifier-containing water.
After 4 days, the efficacy in % is determined. 100% means that all of the planthoppers have been killed; 0% means that none of the planthoppers have been killed.

[12] = tested on: Cooperia curticei; assay: Cooperia curticei test (COOPCU); format: in vivo; conditions: after 5 days
Experimental: Cooperia curticei test (COOPCU)
• Solvent: dimethyl sulfoxide
To produce a suitable preparation of active compound, 10 mg of active compound are mixed with 0.5 ml of dimethyl sulfoxide and the concentrate is diluted with “Ringer's solution” to the desired concentration.
Vessels containing the active compound preparation of the desired concentration are populated with about 40 nematode larvae (Cooperia curticei).
After 5 days, the kill in % is determined. 100% means that all the larvae have been killed; 0% means that none of the larvae have been killed.

[13] = tested on: Nippostrongylus brasiliensis; conditions: 10 ppm, adult worms, 37° C., OD at 405 nm versus negative control
Experimental: Nippostrongylus brasiliensis test (NIPOBR)
Test method for in vitro experiments with Nippostrongylus brasiliensis
Adult Nippostrongylus brasiliensis is isolated from the small intestine of female Wistar rats and transferred into buffer solution containing 100 U/ml penicillin, 0.1 mg/ml streptomycin and 2.5 μg/ml amphotericin B.
The incubation of the worms (both sexes) is carried out in 1.0 ml of the medium also used for determining the acetylcholinesterase activity.
The compounds are dissolved in DMSO and added to the incubation medium such that final concentrations of 10 and 1 μg/ml, respectively, are present. The controls contain only DMSO.
Incubation is carried out at 37° C. and 5% CO2.
The enzyme determination is carried out using an aliquot of the medium. The AChE to be measured cleaves the substrate acetylthiocholine iodide (which is present as the iodide salt) into the products acetate and thiocholine.
In the subsequent reaction, thiocholine forms, with dithionitrobenzoic acid (DTNB, Ellman's reagent), a yellow dye (thionitrobenzoate).
The intensity of the color (=activity of AChE) is determined via the optical density (OD) photometrically at 405 nm and compared to the OD of the negative control.

[14] = tested on: Spodoptera frugiperda; assay: Spodoptera frugiperda spray test (SPODFR); format: in vivo; conditions: 500 g/ha, maize leaf discs, after 7 days
Experimental: Spodoptera frugiperda—spray test (SPODFR)
• Solvent: 78.0 parts by weight of acetone • 1.5 parts by weight of dimethylformamide • Emulsifier: 0.5 parts by weight of alkylaryl polyglycol ether
After 7 days, the efficacy in % is determined. 100% means that all the caterpillars have been killed; 0% means that no caterpillars have been killed.

[15] = acidic range, pH 2.7, 0.1% aqueous formic acid/acetonitrile, read-out: logP [a] = log P (HCOOH)
[16] = acidic range, pH 2.7, 0.1% aqueous formic acid/acetonitrile
[17] = neutral range, pH 7.8, aqueous ammonium hydrogencarbonate/acetonitrile

With `CCc1cnccc1-c1cnc2cc3c(cc2n1)OC(F)(F)O3` [Example I-1, 6-(3-Ethylpyridin-4-yl)-2,2-difluoro[1,3]dioxolo[4,5-g]quinoxaline] the chromatographic logP [1, 15] was 2.34, the chromatographic logP ([1]; neutral range, pH 7.8, aqueous ammonium hydrogencarbonate/acetonitrile, read-out: logP [b] = log P (neutral)) was 3.23 and the “efficacy (spider mites killed)” value [2] was 100%. For the same compound, the “efficacy (aphids killed)” value ([3]; 500 g/ha) was 90%, the “efficacy (kill of aphids)” value ([4]; 20 ppm) was 85% and the “efficacy (planthoppers killed)” value ([5]; 20 ppm) was 100%.

In the case of `FC1(F)Oc2cc3nc(Cl)c(-c4ccc(Cl)cc4)nc3cc2O1` [Example I-4, 6-Chloro-7-(4-chlorophenyl)-2,2-difluoro[1,3]dioxolo[4,5-g]quinoxaline], the chromatographic logP [1, 15] is reported as 5.27 and the “efficacy (kill of larvae)” value ([6]; 20 ppm) is reported as 80%.

With `FC(F)(F)c1ccc2nc(-c3ccncc3)cnc2c1` [Example I-7] the “logP [a] = log P (HCOOH)” value [1, 16] was 2.17, the “logP [b] = log P (neutral)” value [1, 17] was 2.75 and the “efficacy (laying of fertile eggs)” value [7] was 80%. The “nematicidal efficacy (formation of galls)” value [8] was 90%, the “efficacy (beetle larvae killed)” value [9] was 100% and the “efficacy (aphids killed)” value ([3]; 500 g/ha) was 90%. The “efficacy (whiteflies killed)” value [10] was 100% and the “efficacy (planthoppers killed)” value [11] was 90%.

For `FC(F)(F)c1ccc2nc(-c3cccnc3)cnc2c1` [Example I-8], the “logP [a] = log P (HCOOH)” value [1, 16] was 2.46, the “efficacy (kill of larvae)” value ([6]; 100 ppm) was 100% and the “efficacy (kill of larvae)” value ([12]; 100 ppm) was 100%. The “efficacy (category of AChE inhibition)” value [13] was 84% (84% (60-84% inhibition)).

In the case of `FC(F)(F)c1ccc2ncc(-c3ccncc3)nc2c1` [Example I-9], the “logP [a] = log P (HCOOH)” value [1, 16] is reported as 2.13, the “logP [b] = log P (neutral)” value [1, 17] is reported as 2.75 and the “efficacy (kill of larvae)” value ([6]; 100 ppm) is reported as 100%. The “efficacy (kill of larvae)” value ([12]; 100 ppm) was 100%, the “efficacy (beetle larvae killed)” value [9] was 100% and the “efficacy (aphids killed)” value ([3]; 500 g/ha) was 90%. The “efficacy (kill of aphids)” value ([4]; 100 ppm) was 85% and the “efficacy (category of AChE inhibition)” value [13] was 100% (100% (>84-100% inhibition)).

For `FC(F)(F)c1ccc2nc(-c3ccncc3Cl)cnc2c1` [Example I-10], the “logP [a] = log P (HCOOH)” value ([1]; pH 2.7) was 3.27, the “efficacy (aphids killed)” value ([3]; 100 g/ha) was 100% and the “efficacy (kill of aphids)” value ([4]; 20 ppm) was 85%.

For `COc1cnccc1-c1cnc2cc(C(F)(F)F)ccc2n1` [Example I-11], the “logP [a] = log P (HCOOH)” value ([1]; pH 2.7) was 2.59, the “efficacy (aphids killed)” value ([3]; 750 g/ha) was 90% and the “efficacy (kill of aphids)” value ([4]; 100 ppm) was 100%. For the same compound, the “efficacy (whiteflies killed)” value [10] was 100% and the “efficacy (planthoppers killed)” value ([5]; 100 ppm) was 90%.

In the case of `CCSc1ccccc1-c1cnc2cc(C(F)(F)F)ccc2n1` [Example I-14], the “logP [a] = log P (HCOOH)” value ([1]; pH 2.7) is reported as 4.80, the “logP [b] = log P (neutral)” value ([1]; pH 7.8) is reported as 4.78 and the “efficacy (beetle larvae killed)” value [9] is reported as 100%. The “efficacy (caterpillars killed)” value [14] was 100% and the “efficacy (spider mites killed)” value [2] was 100%.

In the case of `CC[S+]([O-])c1ccccc1-c1cnc2cc(C(F)(F)F)ccc2n1` (centres unmarked) [Example I-15], the “logP [a] = log P (HCOOH)” value ([1]; pH 2.7) is reported as 2.79, the “logP [b] = log P (neutral)” value ([1]; pH 7.8) is reported as 2.78 and the “efficacy (beetle larvae killed)” value [9] is reported as 83%. The “efficacy (caterpillars killed)” value [14] was 100%, the “efficacy (spider mites killed)” value [2] was 100% and the “efficacy (whiteflies killed)” value [10] was 90%.

With `CCc1cnccc1-c1cnc2cc(C(F)(F)F)ccc2n1` [Example I-26] the “logP [a] = log P (HCOOH)” value ([1]; pH 2.7) was 2.53, the “logP [b] = log P (neutral)” value ([1]; pH 7.8) was 3.28 and the “efficacy (spider mites killed)” value [2] was 90%. The “efficacy (whiteflies killed)” value [10] was 96% and the “efficacy (planthoppers killed)” value ([5]; 100 ppm) was 80%.

In the case of `CCS(=O)(=O)c1ccccc1-c1cnc2cc(Cl)ccc2n1` [Example I-29], the “logP [a] = log P (HCOOH)” value ([1]; pH 2.7) is reported as 2.81, the “logP [b] = log P (neutral)” value ([1]; pH 7.8) is reported as 2.82 and the “efficacy (caterpillars killed)” value [14] is reported as 83%.

In the case of `Cc1cnccc1-c1cnc2ccc(C(F)(F)F)cc2n1` [Example I-30], the “logP [a] = log P (HCOOH)” value ([1]; pH 2.7) is reported as 2.12, the “logP [b] = log P (neutral)” value ([1]; pH 7.8) is reported as 2.89 and the “efficacy (kill of aphids)” value ([4]; 100 ppm) is reported as 100%. For the same compound, the “efficacy (whiteflies killed)” value [10] was 100% and the “efficacy (planthoppers killed)” value ([5]; 100 ppm) was 80%.

In the case of `Cc1cnccc1-c1cnc2cc3c(cc2n1)OC(F)(F)O3` [Example I-32], the “logP [a] = log P (HCOOH)” value ([1]; pH 2.7) is reported as 1.99, the “logP [b] = log P (neutral)” value ([1]; pH 7.8) is reported as 2.85 and the “efficacy (kill of larvae)” value ([6]; 20 ppm) is reported as 80%. The “efficacy (kill of larvae)” value ([12]; 20 ppm) was 80%, the “efficacy (aphids killed)” value ([3]; 500 g/ha) was 90% and the “efficacy (kill of aphids)” value ([4]; 100 ppm) was 90%.

With `CCSc1ccccc1-c1cnc2cc3c(cc2n1)OC(F)(F)O3` [Example I-34] the “logP [a] = log P (HCOOH)” value ([1]; pH 2.7) was 4.73, the “efficacy (beetle larvae killed)” value [9] was 100% and the “efficacy (spider mites killed)” value [2] was 90%.

For `CCSc1ccccc1-c1cnc2ccc(C(F)(F)F)cc2n1` [Example I-36], the “logP [a] = log P (HCOOH)” value ([1]; pH 2.7) was 4.79, the “efficacy (laying of fertile eggs)” value [7] was 90% and the “efficacy (beetle larvae killed)” value [9] was 83%. The “efficacy (spider mites killed)” value [2] was 90% and the “efficacy (aphids killed)” value ([3]; 500 g/ha) was 90%.

With `Clc1ccc2nc(-c3cccnc3)cnc2c1` [Example I-40] the “logP [a] = log P (HCOOH)” value [1, 16] was 2.01, the “logP [b] = log P (neutral)” value [1, 17] was 2.43 and the “efficacy (kill of larvae)” value ([12]; 20 ppm) was 90%.

In the case of `COc1cnccc1-c1cnc2ccc(C(F)(F)F)cc2n1` [Example I-62], the “logP [a] = log P (HCOOH)” value ([1]; pH 2.7) is reported as 2.60, the “efficacy (aphids killed)” value ([3]; 100 g/ha) is reported as 90% and the “efficacy (kill of aphids)” value ([4]; 100 ppm) is reported as 97%.

For `Cc1cnccc1-c1nc2ccc(C(F)(F)F)cc2nc1C` [Example I-66], the “logP [a] = log P (HCOOH)” value [1, 16] was 2.15, the “efficacy (spider mites killed)” value [2] was 90% and the “efficacy (aphids killed)” value ([3]; 500 g/ha) was 90%. The “efficacy (kill of aphids)” value ([4]; 100 ppm) was 95%.

For `FC1(F)Oc2cc3ncc(-c4ccncc4)nc3cc2O1` [Example I-74], the “logP [a] = log P (HCOOH)” value [1, 16] was 1.98 and the “nematicidal efficacy (formation of galls)” value [8] was 90%.

From patent publication US9936700B2, “Substituted quinoxaline derivatives as pest control agent” (BAYER CROPSCIENCE AKTIENGESELLSCHAFT, priority 2013, dated 2018)
